The subject of assay [1] is U-2 OS cells. The assay can be described thus: AZT treatment of ALT cells, flow cytometry for telomere length (PNA probe) and cell cycle (PI). The class given is cell-based, human. As for the experimental part:
(§1) Telomere length in AZT treated and untreated cell lines was measured by flow cytometry with a telomere-specific peptide nucleic acid (PNA) probe^22,23. To determine cell cycle distribution, cells were stained with propidium iodide (PI)^22. […] AZT at the chosen concentration had no effect on telomere length or cell cycle distribution in the HeLa cells (not shown).
Rate of DNA synthesis was determined by incorporation of 5-bromodeoxyuridine (BdU)^24.
(§2) Cell lines: All cell lines used in this study were obtained from American Type Culture Collection (Rockville, Md.). The cells origins included osteosarcoma (Saos-2 and U-2 OS), liver ([…]) and uterine cervix (HeLa). Cells were cultured following ATCC recommendation. For treatment of the cells with AZT, the media was supplemented with 0.2 μM of 3′-azido-2′,3′-dideoxythymidine (Sigma)^28.
(§3) Telomere length measurement by flow cytometry: Cell were stained with telomere specific FITC conjugated (C3TA2)3 PNA (Applied Biosystems) probe and contrastained with 0.06 μg/ml PI as described^21.

The subject of assay [2] is Saos-2 cells. Described as above. To be noted: Saos-2, 0.2 μM AZT, 14 days. The class given is cell-based, human. As for the experimental part: as §1, §2, §3
For assay [3], the system named is WM1175 (malignant melanoma) or HUT292DM (lung cancer) cells. Kind of assay: Telomerase-positive xenograft tumors in immunodeficient mice treated with AZT. The class given is in vivo. Conditions: AZT at the dose tested (total daily dose 10 mg/kg). As for the experimental part:
After induction of tumors, mice in the experimental groups may be treated with AZT. Mice may be injected i.p. twice a day with solution of AZT in PBS with a total daily dose of 10 mg/kg. Mice in control group may be injected with PBS. Alternatively, AZT at the same daily dose may be given in drinking water. […] As a separate set of controls, telomerase-positive tumors in nude mouse may be induced by injecting the immunodeficient mice with WM1175 (malignant melanoma) or HUT292DM (lung cancer) cells instead of the transformed IIICF/c fibroblast cells.

Consider `Cc1cn([C@H]2C[C@H](N=[N+]=[N-])[C@@H](CO)O2)c(=O)[nH]c1=O` [AZT, 3′-azido-2′,3′-dideoxythymidine], for which the “DNA content (PI staining)” value in assay [1] (AZT treated cells at later stages of treatment, compared to untreated cells) is recorded as “higher DNA content”. Besides, the “time of AZT treatment after which changes in cell cycle distribution, DNA synthesis and telomere length could be detected” value in assay [1] (U-2 OS, 0.2 μM AZT) came out at 10 days. The apoptosis result in assay [1] (U-2 OS, 0.2 μM AZT, 14 days) is “massive apoptosis”; in assay [2] it was “massive apoptosis”. For the same compound, the telomere length result in assay [1] (U-2 OS, 0.2 μM AZT, 14 days) is reported as “telomere shortening”; in assay [2], “telomere shortening”. For the same compound, the cell cycle distribution entry is “G2 arrest” in assay [1] (U-2 OS, 0.2 μM AZT, 14 days, PI staining) and “G2 arrest” in assay [2] (PI staining). Further, the “inhibition of telomerase-positive tumors” value in assay [3] is recorded as “cannot be inhibited”.

Values taken from patent US8778906B2, “Modulation of line-1 reverse transcriptase” (ALT Solutions, Inc., priority 2003, dated 2014).
